Results as given in ChEMBL document CHEMBL1201862, “PubChem BioAssay data set” (2004).
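Briefly, cells in 96-well plates were exposed to five compound concentrations for 48 h, and endpoints were estimated by linear interpolation. GI50 = concentration required for 50% inhibition of growth.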 The source made the active and inactive calls. Rule as the data show it: active = GI50 up to about 1.1 µM and inactive = higher.

Experiments:
Experiment in all cases: growth of human tumour cells (NCI), 48 h
SNB-78 = system: SNB-78
SK-MEL-5 = system: SK-MEL-5
SK-OV-3 = system: SK-OV-3
IGROV-1 = system: IGROV-1
SW-620 = system: SW-620
M14 = system: M14
U-251 = system: U-251
HT-29 = system: HT-29
ACHN = system: ACHN
UACC-257 = system: UACC-257
K562 = system: K562
LXFL 529 = system: LXFL 529
HOP-62 = system: HOP-62
MOLT-4 = system: MOLT-4
UACC-62 = system: UACC-62
OVCAR-4 = system: OVCAR-4
NCI-H226 = system: NCI-H226
XF498 = system: XF498

Structure (SMILES)	GI50 (SNB-78)	GI50 (SK-MEL-5)	GI50 (SK-OV-3)	GI50 (IGROV-1)	GI50 (SW-620)	GI50 (M14)	GI50 (U-251)	GI50 (HT-29)	GI50 (ACHN)	GI50 (UACC-257)	GI50 (K562)	GI50 (LXFL 529)	GI50 (HOP-62)	GI50 (MOLT-4)	GI50 (UACC-62)	GI50 (OVCAR-4)	GI50 (NCI-H226)	GI50 (XF498)
S=C1SCC2CCCN12 (stereo not given)	> 100 µM (inactive)	> 100 µM (inactive)	> 100 µM (inactive)	> 100 µM (inactive)	> 100 µM (inactive)	> 100 µM (inactive)	> 100 µM (inactive)	> 100 µM (inactive)	> 100 µM (inactive)	> 100 µM (inactive)	> 100 µM (inactive)	> 100 µM (inactive)	> 100 µM (inactive)	> 100 µM (inactive)	> 100 µM (inactive)	> 100 µM (inactive)		
C=CCSc1ncnc2c1ncn2C1OC(CO)C(O)C1O (stereo not given)	> 100 µM (inactive)	> 100 µM (inactive)	30.5 µM (inactive)	> 100 µM (inactive)	14.4 µM (inactive)	33 µM (inactive)	> 100 µM (inactive)	32.6 µM (inactive)	20.1 µM (inactive)	> 100 µM (inactive)	5.35 µM (inactive)		35.1 µM (inactive)	3.58 µM (inactive)	> 100 µM (inactive)	> 100 µM (inactive)	> 100 µM (inactive)	> 100 µM (inactive)
CN1CCc2c1nc(-c1ccc(Cl)cc1)c1c2N(C)CC1	28.7 µM (inactive)	10.5 µM (inactive)	21.2 µM (inactive)	3.06 µM (inactive)	24.4 µM (inactive)	7.71 µM (inactive)	3.74 µM (inactive)	4.56 µM (inactive)	6.78 µM (inactive)	13.7 µM (inactive)	9.29 µM (inactive)	20.1 µM (inactive)	11.2 µM (inactive)	6.28 µM (inactive)	5.94 µM (inactive)	28.4 µM (inactive)		10.1 µM (inactive)
CC(C)(C)[Si](C)(C)OC1C(=O)C[C@H]2CCCC[C@@H]12 (stereo not given in full)	> 100 µM (inactive)	> 100 µM (inactive)	> 100 µM (inactive)	> 100 µM (inactive)	> 100 µM (inactive)	> 100 µM (inactive)	> 100 µM (inactive)	> 100 µM (inactive)	> 100 µM (inactive)	> 100 µM (inactive)	> 100 µM (inactive)	> 100 µM (inactive)	> 100 µM (inactive)	> 100 µM (inactive)	> 100 µM (inactive)	> 100 µM (inactive)		> 100 µM (inactive)
Cn1c(=O)cc2[nH]c3ccccc3n2c1=O	86.5 µM (inactive)	> 100 µM (inactive)	48.8 µM (inactive)	> 100 µM (inactive)	22.7 µM (inactive)	72.9 µM (inactive)	16.2 µM (inactive)	49.3 µM (inactive)	69.7 µM (inactive)	> 100 µM (inactive)	42.1 µM (inactive)	42.8 µM (inactive)	> 100 µM (inactive)	> 100 µM (inactive)	> 100 µM (inactive)	27 µM (inactive)	55.6 µM (inactive)	
Nc1nc2[nH]cnc2c(=O)[nH]1	> 100 µM (inactive)	> 100 µM (inactive)	> 100 µM (inactive)	> 100 µM (inactive)	> 100 µM (inactive)	> 100 µM (inactive)	> 100 µM (inactive)	> 100 µM (inactive)	> 100 µM (inactive)	> 100 µM (inactive)	> 100 µM (inactive)	> 100 µM (inactive)	> 100 µM (inactive)		> 100 µM (inactive)	> 100 µM (inactive)	> 100 µM (inactive)	> 100 µM (inactive)
NC1CCC[C@H]1O (stereo not given in full)	> 100 µM (inactive)	> 100 µM (inactive)	> 100 µM (inactive)	> 100 µM (inactive)	> 100 µM (inactive)	> 100 µM (inactive)	> 100 µM (inactive)	> 100 µM (inactive)	> 100 µM (inactive)	> 100 µM (inactive)	> 100 µM (inactive)		> 100 µM (inactive)	> 100 µM (inactive)	> 100 µM (inactive)	> 100 µM (inactive)	> 100 µM (inactive)	> 100 µM (inactive)
COc1cccc2c1C(=O)c1c(O)c3c(c(O)c1C2=O)C[C@@](O)(C(=O)CO)CC3OC1CC(NCCOCC(OC(C)=O)OC(C)=O)C(O)C(C)O1 (stereo not given in full)		< 0.01 µM (active)	< 0.01 µM (active)	< 0.01 µM (active)	< 0.01 µM (active)	< 0.01 µM (active)	0.00925 µM (active)	< 0.01 µM (active)	< 0.01 µM (active)	< 0.01 µM (active)	< 0.01 µM (active)	< 0.01 µM (active)	0.00382 µM (active)	< 0.01 µM (active)	0.00498 µM (active)	< 0.01 µM (active)	< 0.01 µM (active)	< 0.01 µM (active)
